Measurements published in patent US4731109A, “Herbicidal 2-haloacetanilides” (Monsanto Company, priority 1982, dated 1988).
Where two headings read alike, the source gives them in different places.

Assays:
Assay type in all cases: in vivo
[1] = system: peanuts; assay: Greenhouse pre-emergence GR15/GR85 selectivity test; settings: Table XVI
Excerpt: (§1) A good grade of top soil is placed in aluminum pans and compacted to a depth of three-eighths to one-half inch from the top of the pan. On the top of the soil is placed a number of seeds or vegetative propagules of various plant species. The soil required to level fill the pans after seeding or adding vegetative propagules is weighed into a pan. The soil and a known amount of the active ingredient applied in a solvent or as a wettable powder suspension are thoroughly mixed, and used to cover the prepared pans. After treatment, the pans are given an initial overhead irrigation of eater, equivalent to one-fourth inch (0.64 cm) rainfall, then watered by subirrigation as need to give adequate moisture for germination and growth. As an alternative procedure, the overhead irrigation may be omitted. Observations are made about 2-3 weeks after seeding and treatment.
(§2) In the discussion and tables of data below, reference is made to herbicide application rates symbolized as "GR15 " and "GR85 "; these rates are given in kilograms per hectare (kg/ha) which are convertible into pounds per acre (lbs/A) by dividing the kg/ha rate by 1.12.
(§3) A further guide to the effectiveness of a chemical as a selective herbicide is the "selectivity factor" ("SF") for a herbicide in given crops and weeds. The selectivity factor is a measure of the relative degree of crop safety and weed injury and is expressed in terms of the GR15 /GR85 ratio, i.e., the GR15 rate for the crop divided by the GR85 rate for the weed, both rates in kg/ha (lb/A). In the tables below, selectivity factors are shown in parenthesis following the GR85 rate for each weed; the symbol "NS" indicates "non-selective". Marginal or undetermined selectivity is indicated by a dash (--).
(§4) Additionally, pre-emergence herbicidal data from other tests have established that compounds according to this invention also selectively suppress quackgrass, yellow nutsedge and/or other weeds in one or more of the crops cotton, peanuts, bush beans and/or rape. For example, in Table VI are presented data showing the herbicidal selectivity of the compounds of Examples 1 and 2 against quackgrass in rape and snap beans. Unless otherwise noted; greenhouse tests in Table VI and in other tables below involved herbicide treatments by soil incorporation and an initial overhead irrigation followed by subirrigation as described above.
(§5) Additional greenhouse tests were made to test certain compounds of this invention against a plurality of problem weeds in peanuts and lima beans; except for fall panicum, the test weeds are particularly resistant weeds; the test data is set forth in Table XVI.
(§6) In Table XVI, the selectivity factors for the test compounds for each weed in lima beans is shown as the first or upper value in parenthesis and the selectivity factors for each weed in peanuts is shown as the second or lower value in parenthesis for each compound. For example, the selectivity factor for the compound of Example 3 for seedling johnsongrass in lima beans is 2.1 and in peanuts, >4.9; the selectivity factor for Texas panicum in lima beans is 1.1 and in peanuts, >2.6, etc.

[2] = system: lima beans; assay: as above; settings: Table XVI
Excerpt: as §1, §2, §3, §4, §5, §6

[3] = system: Barnyardgrass; assay: Resistance to leaching and resulting herbicidal efficacy; settings: Echinochloa crus-galli, read-out: Percent Inhibition; for inhibition at 140 g/ha: 0.14 Kg/Ha; for inhibition at 560 g/ha: 0.56 Kg/Ha; for inhibition at 2200 g/ha: 2.2 Kg/Ha
In short: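 Treated soil in pots leached under simulated rainfall (one inch (2.5 cm) water per hour, duration varied), held three days at ambient temperature, then laid as surface layer over barnyardgrass-seeded pots. After 2-3 weeks in greenhouse, visual percent growth inhibition versus untreated controls and fresh weights recorded; three replications per compound.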

[4] = system: redroot pigweed; assay: Greenhouse pre-emergence GR15/GR85 selectivity test; settings: Table XV
In short: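 Pre-emergence soil-incorporation test: seeded pans were covered with topsoil mixed with active ingredient (in solvent or as wettable powder), overhead-irrigated (0.64 cm) or not, then subirrigated. Plants were scored about 2-3 weeks after treatment. GR15/GR85 rates are in kg/ha, and selectivity factor is crop GR15 divided by weed GR85.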

[5] = system: Quackgrass; assay: as above
[6] = system: Yellow Nutsedge; assay: as above
[7] = Drummer silt clay, rain 1.27 cm
[8] = Drummer silt clay, rain 5.08 cm
[9] = Drummer silt clay, rain 10.16 cm

Question: Which “GR15 Rate” value [1] does the source give for `CCCOCN(C(=O)CCl)c1c(CC)cccc1C(F)(F)F` [Example 10, N--(n-propoxymethyl)-2'-trifluoromethyl-6'-ethyl-2-chloroacetanilide] here?
Answer: Its value is 0.98 Kg/Ha.

Question: What about the “GR15 Rate” value [2] of the same molecule?
Answer: Its value is > 1.12 Kg/Ha.

Question: What about the inhibition at 140 g/ha ([3]; Drummer silt clay, rain 0 cm) of the same molecule?
Answer: The inhibition at 140 g/ha was 90%.

Question: What about the inhibition at 140 g/ha [3, 7] of the same molecule?
Answer: The inhibition at 140 g/ha was 85%.

Question: And the inhibition at 140 g/ha [3, 8]?
Answer: The inhibition at 140 g/ha was 80%.

Question: And the inhibition at 140 g/ha [3, 9]?
Answer: The inhibition at 140 g/ha was 70%.

Question: What about the inhibition at 560 g/ha ([3]; Drummer silt clay, rain 0 cm) of the same molecule?
Answer: Its inhibition at 560 g/ha is 99%.

Question: What about the inhibition at 560 g/ha [3, 7] of the same molecule?
Answer: The inhibition at 560 g/ha was 98%.

Question: And the inhibition at 560 g/ha [3, 8]?
Answer: The inhibition at 560 g/ha was 98%.

Question: What about the inhibition at 560 g/ha [3, 9] of the same molecule?
Answer: Its inhibition at 560 g/ha is 98%.

Question: What about the inhibition at 2200 g/ha ([3]; Drummer silt clay, rain 0 cm) of the same molecule?
Answer: Its inhibition at 2200 g/ha is 100%.

Question: What about the inhibition at 2200 g/ha [3, 7] of the same molecule?
Answer: The inhibition at 2200 g/ha was 100%.

Question: And the inhibition at 2200 g/ha [3, 8]?
Answer: The inhibition at 2200 g/ha was 99%.

Question: And the inhibition at 2200 g/ha [3, 9]?
Answer: The inhibition at 2200 g/ha was 98%.

Question: What about the inhibition at 140 g/ha ([3]; Ray silt loam, rain 0 cm) of the same molecule?
Answer: Its inhibition at 140 g/ha is 100%.

Question: What about the inhibition at 140 g/ha ([3]; Ray silt loam, rain 1.27 cm) of the same molecule?
Answer: Its inhibition at 140 g/ha is 100%.

Question: What about the inhibition at 140 g/ha ([3]; Ray silt loam, rain 5.08 cm) of the same molecule?
Answer: The inhibition at 140 g/ha was 98%.

Question: What about the inhibition at 560 g/ha ([3]; Ray silt loam, rain 0 cm) of the same molecule?
Answer: Its inhibition at 560 g/ha is 100%.

Question: And the inhibition at 560 g/ha ([3]; Ray silt loam, rain 1.27 cm)?
Answer: Its inhibition at 560 g/ha is 100%.

Question: What about the inhibition at 560 g/ha ([3]; Ray silt loam, rain 5.08 cm) of the same molecule?
Answer: Its inhibition at 560 g/ha is 100%.

Question: What about the inhibition at 560 g/ha ([3]; Ray silt loam, rain 10.16 cm) of the same molecule?
Answer: The inhibition at 560 g/ha was 90%.

Question: What about the inhibition at 2200 g/ha ([3]; Ray silt loam, rain 1.27 cm) of the same molecule?
Answer: Its inhibition at 2200 g/ha is 100%.

Question: What about the inhibition at 2200 g/ha ([3]; Ray silt loam, rain 5.08 cm) of the same molecule?
Answer: Its inhibition at 2200 g/ha is 100%.

Question: And the inhibition at 2200 g/ha ([3]; Ray silt loam, rain 10.16 cm)?
Answer: The inhibition at 2200 g/ha was 98%.

Question: And the inhibition at 140 g/ha ([3]; Ray silt loam, rain 10.16 cm)?
Answer: Its inhibition at 140 g/ha is 65%.

Question: And the “GR85 Rate” value [4]?
Answer: The value was 0.70 Kg/Ha.

Question: What about the “selectivity factor (GR15/GR85)” value ([4]; in rape) of the same molecule?
Answer: Its value is > 1.6.

Question: And the GR85 ([5]; Table XIII)?
Answer: Its GR85 is 0.45 Kg/Ha.

Question: And the “selectivity against quackgrass in wheat” value ([5]; in wheat)?
Answer: Its value is “non-selective”.

Question: And the “selectivity factor (GR15/GR85)” value ([5]; quackgrass in corn, Table XIII)?
Answer: The value was 5.6.

Question: What about the “selectivity factor (GR15/GR85)” value ([5]; quackgrass in soybeans, Table XIII) of the same molecule?
Answer: Its value is 3.3.

Question: What about the GR85 ([6]; Table XII) of the same molecule?
Answer: Its GR85 is 0.38 Kg/Ha.

Question: And the “selectivity with respect to yellow nutsedge in rice” value ([6]; in rice)?
Answer: Its value is “non-selective”.

Question: And the “selectivity factor (GR15/GR85)” value ([6]; yellow nutsedge in corn, Table XII)?
Answer: Its value is 4.5.

Question: What about the “selectivity factor (GR15/GR85)” value ([6]; yellow nutsedge in cotton, Table XII) of the same molecule?
Answer: The value was 7.4.

Question: And the “selectivity factor (GR15/GR85)” value ([6]; yellow nutsedge in soybeans, Table XII)?
Answer: The value was 5.8.
